Experimental data reported in PubChem BioAssay (NCI).
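GI50 is the concentration that inhibits growth by half. TGI denotes the concentration required for complete inhibition of growth.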

Key:
Experiment in all cases: NCI anticancer screen, dose series, 384-well format; in the data active means GI50 below about 0.43 µM; inactive means the rest
M14 melanoma = system: M14 melanoma
SF-268 CNS = system: SF-268 CNS
HOP-62 NSCLC = system: HOP-62 NSCLC
OVCAR-5 ovarian = system: OVCAR-5 ovarian
K-562 leukemia = system: K-562 leukemia
SK-OV-3 ovarian = system: SK-OV-3 ovarian
HT29 colon = system: HT29 colon
A498 renal = system: A498 renal
U251 glioblastoma = system: U251 glioblastoma
NCI/ADR-RES ovarian = system: NCI/ADR-RES ovarian
HL-60(TB) leukemia = system: HL-60(TB) leukemia
NCI-H322M lung = system: NCI-H322M lung
NCI-H522 lung = system: NCI-H522 lung

COCCOc1cnc2ccn([C@H](C)c3nnc4c(F)cc(-c5cnn(C)c5)cn34)c(=O)c2c1
inactive: GI50 (M14 melanoma) > 100 µM | GI50 (SF-268 CNS) > 100 µM | GI50 (HOP-62 NSCLC) > 100 µM | GI50 (OVCAR-5 ovarian) > 100 µM | GI50 (K-562 leukemia) > 100 µM | GI50 (SK-OV-3 ovarian) > 100 µM | GI50 (HT29 colon) > 100 µM | GI50 (A498 renal) > 100 µM | GI50 (U251 glioblastoma) > 100 µM | GI50 (NCI/ADR-RES ovarian) > 100 µM | GI50 (HL-60(TB) leukemia) > 100 µM | GI50 (NCI-H322M lung) > 100 µM | GI50 (NCI-H522 lung) > 100 µM
> 100 µM: TGI (M14 melanoma) | TGI (SF-268 CNS) | TGI (HOP-62 NSCLC) | TGI (OVCAR-5 ovarian) | TGI (K-562 leukemia) | TGI (SK-OV-3 ovarian) | TGI (HT29 colon) | TGI (A498 renal) | TGI (U251 glioblastoma) | TGI (NCI/ADR-RES ovarian) | TGI (HL-60(TB) leukemia) | TGI (NCI-H322M lung) | TGI (NCI-H522 lung)
